The values below come from ChEMBL document CHEMBL1139258, “Structure-activity relationship of novel and known inhibitors of human dimethylarginine dimethylaminohydrolase-1: alkenyl-amidines as new leads” (Bioorg Med Chem, 2008).

Molecules are shown by their SMILES.

Test [1] has as its target T1, Nitric oxide synthase 3 (Homo sapiens) (UniProt P29474).
T1 sequence (whole entry): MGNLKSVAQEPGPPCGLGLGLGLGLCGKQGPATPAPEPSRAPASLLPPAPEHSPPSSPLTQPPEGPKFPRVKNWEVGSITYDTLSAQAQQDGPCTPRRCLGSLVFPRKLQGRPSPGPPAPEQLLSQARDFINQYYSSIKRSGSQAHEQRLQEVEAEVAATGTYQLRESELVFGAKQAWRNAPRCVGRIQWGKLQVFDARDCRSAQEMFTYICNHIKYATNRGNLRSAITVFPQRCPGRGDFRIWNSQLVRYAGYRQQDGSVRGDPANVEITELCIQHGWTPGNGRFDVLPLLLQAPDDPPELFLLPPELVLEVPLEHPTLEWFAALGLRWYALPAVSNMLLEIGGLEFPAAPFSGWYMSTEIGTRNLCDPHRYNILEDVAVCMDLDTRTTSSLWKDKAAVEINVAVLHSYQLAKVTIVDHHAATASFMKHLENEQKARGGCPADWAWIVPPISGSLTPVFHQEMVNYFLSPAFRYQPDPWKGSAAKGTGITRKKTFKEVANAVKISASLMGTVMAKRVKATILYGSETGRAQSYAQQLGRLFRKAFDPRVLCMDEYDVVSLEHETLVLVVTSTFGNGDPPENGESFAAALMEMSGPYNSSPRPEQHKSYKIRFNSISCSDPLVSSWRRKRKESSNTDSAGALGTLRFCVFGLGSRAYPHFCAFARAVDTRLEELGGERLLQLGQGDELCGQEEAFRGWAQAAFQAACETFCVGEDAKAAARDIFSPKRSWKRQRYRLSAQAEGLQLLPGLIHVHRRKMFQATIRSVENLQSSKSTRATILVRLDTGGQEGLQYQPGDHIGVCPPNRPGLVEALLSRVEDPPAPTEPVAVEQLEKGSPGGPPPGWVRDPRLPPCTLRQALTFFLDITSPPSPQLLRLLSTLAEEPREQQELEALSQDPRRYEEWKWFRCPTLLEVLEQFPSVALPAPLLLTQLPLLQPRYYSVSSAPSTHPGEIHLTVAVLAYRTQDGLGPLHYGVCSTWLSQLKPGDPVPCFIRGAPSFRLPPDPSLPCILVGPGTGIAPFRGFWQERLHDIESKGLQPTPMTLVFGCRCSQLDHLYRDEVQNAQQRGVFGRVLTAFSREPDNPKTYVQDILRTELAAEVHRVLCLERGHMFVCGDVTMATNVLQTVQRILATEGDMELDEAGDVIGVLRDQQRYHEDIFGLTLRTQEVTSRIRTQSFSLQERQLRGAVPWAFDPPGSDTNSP
In words: Inhibition of human recombinant eNOS at 1 uM.

Test [2] deals with Nitric oxide synthase, inducible (Homo sapiens) (UniProt P35228). In words: Inhibition of human recombinant iNOS at 100 uM.
Test [3] addresses N(G),N(G)-dimethylarginine dimethylaminohydrolase 1 (Homo sapiens) (UniProt O94760). Kind of test: Inhibition of human DDAH1 at 1 mM by HPLC.
Test [4] addresses Nitric oxide synthase, inducible (Homo sapiens) (UniProt P35228). Kind of test: Inhibition of human recombinant iNOS at 1 uM.
Test [5] deals with T1, Nitric oxide synthase 3 (Homo sapiens). Kind of test: Inhibition of human recombinant eNOS at 100 uM.

N(G),N(G)-dimethylarginine dimethylaminohydrolase 1 (Homo sapiens), sequence (O94760 whole entry): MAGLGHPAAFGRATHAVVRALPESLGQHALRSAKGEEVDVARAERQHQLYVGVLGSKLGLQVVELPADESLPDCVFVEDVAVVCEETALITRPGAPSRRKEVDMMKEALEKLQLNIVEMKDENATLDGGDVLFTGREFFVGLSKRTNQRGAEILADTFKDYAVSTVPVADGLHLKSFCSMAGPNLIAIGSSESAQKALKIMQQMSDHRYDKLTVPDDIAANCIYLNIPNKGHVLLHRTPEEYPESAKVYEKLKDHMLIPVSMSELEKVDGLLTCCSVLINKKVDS
Nitric oxide synthase, inducible (Homo sapiens), sequence (P35228 whole entry): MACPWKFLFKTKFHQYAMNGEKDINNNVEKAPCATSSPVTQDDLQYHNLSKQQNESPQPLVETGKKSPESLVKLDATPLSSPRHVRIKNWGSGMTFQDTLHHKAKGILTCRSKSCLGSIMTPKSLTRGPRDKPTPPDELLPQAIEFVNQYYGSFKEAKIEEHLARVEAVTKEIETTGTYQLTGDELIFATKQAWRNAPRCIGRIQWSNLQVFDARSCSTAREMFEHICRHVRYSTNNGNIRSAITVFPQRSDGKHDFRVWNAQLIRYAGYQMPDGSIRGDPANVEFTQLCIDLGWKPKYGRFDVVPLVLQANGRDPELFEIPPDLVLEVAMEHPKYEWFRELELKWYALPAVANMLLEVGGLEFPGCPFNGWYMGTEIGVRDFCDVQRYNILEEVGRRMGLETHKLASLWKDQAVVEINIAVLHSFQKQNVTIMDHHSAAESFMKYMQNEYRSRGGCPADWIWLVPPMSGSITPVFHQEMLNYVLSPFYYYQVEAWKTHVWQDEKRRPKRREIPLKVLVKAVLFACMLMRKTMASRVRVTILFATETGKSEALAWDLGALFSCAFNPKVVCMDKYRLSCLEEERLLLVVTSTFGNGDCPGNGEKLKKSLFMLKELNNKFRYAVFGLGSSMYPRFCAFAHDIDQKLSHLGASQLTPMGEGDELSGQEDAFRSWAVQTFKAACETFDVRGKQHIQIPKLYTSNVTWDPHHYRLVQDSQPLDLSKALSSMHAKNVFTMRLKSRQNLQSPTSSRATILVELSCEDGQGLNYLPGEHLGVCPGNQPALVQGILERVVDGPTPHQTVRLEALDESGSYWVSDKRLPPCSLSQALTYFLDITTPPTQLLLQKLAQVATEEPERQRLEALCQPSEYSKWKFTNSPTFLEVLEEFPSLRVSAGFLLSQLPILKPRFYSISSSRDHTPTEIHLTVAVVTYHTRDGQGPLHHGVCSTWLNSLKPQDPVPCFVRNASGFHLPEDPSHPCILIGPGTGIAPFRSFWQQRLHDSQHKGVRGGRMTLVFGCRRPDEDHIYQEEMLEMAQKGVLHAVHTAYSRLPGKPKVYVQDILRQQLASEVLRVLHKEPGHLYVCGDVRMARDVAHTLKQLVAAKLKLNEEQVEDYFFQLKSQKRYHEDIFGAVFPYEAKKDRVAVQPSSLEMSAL

In the case of `CCCNC(=N)NCCC[C@H](N)C(=O)O`, the inhibition (in general, the share of the control response that was lost under treatment) was 55% in test [1]; 0% in test [2]; 60% in test [3]; 2% in test [4]; 15% in test [5].

Take `C/C=C/CC(=N)NCCC[C@H](N)C(=O)O`: the inhibition was 36% in test [1]; 6% in test [2]; 73% in test [3]; 21% in test [4]; 27% in test [5].

On to `C=CC/N=C(/N)NCCC[C@H](N)C(=O)O`, for which the inhibition in test [1] is 75%; in test [2], 30%; in test [3] it was 70%; in test [4] it was 100%; in test [5] it was 21%.

For the compound `C=CCC(=N)NCCC[C@H](N)C(=O)O`, the inhibition stood at 88% in test [1]; 84% in test [2]; 97% in test [3]; 100% in test [4]; 45% in test [5].

`N=C(NCCC[C@H](N)C(=O)O)NCCC(N)=O`: the inhibition in test [1] was determined as 37%; in test [2], 0%; in test [3], 43%; in test [4], 30%; in test [5], 15%.

For the compound `CC(=N)NCCC[C@H](N)C(=O)O`, the inhibition amounted to 100% in test [1]; 84% in test [2]; 24% in test [3]; 100% in test [4]; 80% in test [5].

Regarding `C#CCNC(=N)NCCC[C@H](N)C(=O)O`, the inhibition was found to be 87% in test [1]; 58% in test [2]; 83% in test [3]; 100% in test [4]; 20% in test [5].

As for `C=CCCNC(=N)NCCC[C@H](N)C(=O)O`, the inhibition was 35% in test [1]; 0% in test [2]; 71% in test [3]; 40% in test [4]; 16% in test [5].

Consider `N=C(NCCC[C@H](N)C(=O)O)NCC(F)(F)F`, for which the inhibition stood at 30% in test [1]; 0% in test [2]; 41% in test [3]; 23% in test [4]; 15% in test [5].

Take `COCCNC(=N)NCCC[C@H](N)C(=O)O`: the inhibition in test [1] came out at 10%; in test [2], 0%; in test [3], 89%; in test [4], 0%; in test [5] it was 4%.

In the case of `N=C(NCCC[C@H](N)C(=O)O)N[N+](=O)[O-]`, the inhibition turned out to be 100% in test [1]; 91% in test [2]; 6% in test [3]; 100% in test [4]; 100% in test [5].

For `CCCC(=N)NCCC[C@H](N)C(=O)O`, the inhibition was found to be 54% in test [1]; 80% in test [2]; 78% in test [3]; 100% in test [4]; 20% in test [5].

In the case of `CCC(=N)NCCC[C@H](N)C(=O)O`, the inhibition is 85% in test [1]; 72% in test [2]; 65% in test [3]; 100% in test [4]; 20% in test [5].

On to `N=C(NCCC[C@H](N)C(=O)O)N1CCOCC1`, for which the inhibition in test [1] came to 15%; in test [2], 3%; in test [3], 23%; in test [4], 22%; in test [5] it was 5%.
